From US7396837B2, “Antitumoral analogs of lamellarins” (Pharma Mar, S.A.U., priority 2002, dated 2008)
Like-named read-outs stand apart in the source and are kept apart here.

Legend:
LNCaP = experiment: SRB colorimetric cell growth inhibition assay, LNCaP; type: cell-based; conditions: Homo sapiens, LNCaP, LN-caP
How it was run: (§1)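 Cancer cells grown in vitro were continuously treated with compound. Cell mass was then determined by SRB staining and expressed as growth inhibition.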

HT-29 = experiment: SRB colorimetric cell growth inhibition assay, HT-29; type: cell-based; conditions: Homo sapiens; for CC50: cell killing (cytotoxic effect), read-out: LC50 HT-29; for GI50: GI=growth inhibition, read-out: GI50 HT-29; for IC (TGI): total growth inhibition (cytostatic effect), read-out: TGI HT-29
How it was run: as §1

PANC-1 = experiment: SRB colorimetric cell growth inhibition assay, PANC-1; type: cell-based; conditions: Homo sapiens; for CC50: cell killing (cytotoxic effect), read-out: LC50 PANC-1; for IC (TGI): total growth inhibition (cytostatic effect), read-out: TGI PANC-1; for GI50: GI=growth inhibition, read-out: GI50 PANC-1
How it was run: as §1

DU-145 = experiment: SRB colorimetric cell growth inhibition assay, DU-145; type: cell-based; conditions: Homo sapiens; for CC50: cell killing (cytotoxic effect), read-out: LC50 DU-145; for GI50: GI=growth inhibition, read-out: GI50 DU-145; for IC (TGI): total growth inhibition (cytostatic effect), read-out: TGI DU-145
How it was run: as §1

SK-MEL-28 = experiment: SRB colorimetric cell growth inhibition assay, SK-MEL-28; type: cell-based; conditions: Homo sapiens, SK-MEL-28, MEL-28; for GI50: GI=growth inhibition, read-out: GI50 MEL-28; for CC50: cell killing (cytotoxic effect), read-out: LC50 MEL-28; for IC (TGI): total growth inhibition (cytostatic effect), read-out: TGI MEL-28
How it was run: as §1

LoVo = experiment: SRB colorimetric cell growth inhibition assay, LoVo; type: cell-based; conditions: Homo sapiens; for CC50: cell killing (cytotoxic effect), read-out: LC50 LOVO; for GI50: GI=growth inhibition, read-out: GI50 LOVO; for IC (TGI): total growth inhibition (cytostatic effect), read-out: TGI LOVO
How it was run: as §1

IGROV-ET = experiment: SRB colorimetric cell growth inhibition assay, IGROV-ET (ET-743 resistant); type: cell-based; conditions: Homo sapiens, IGROV-ET; for GI50: GI=growth inhibition, read-out: GI50 IGROV-ET; for CC50: cell killing (cytotoxic effect), read-out: LC50 IGROV-ET; for IC (TGI): total growth inhibition (cytostatic effect), read-out: TGI IGROV-ET
How it was run: as §1

LoVo-Dox = experiment: SRB colorimetric cell growth inhibition assay, LoVo-Dox (MDR); type: cell-based; conditions: Homo sapiens, LOVO-DOX; for GI50: GI=growth inhibition, read-out: GI50 LOVO-DOX; for CC50: cell killing (cytotoxic effect), read-out: LC50 LOVO-DOX; for IC (TGI): total growth inhibition (cytostatic effect), read-out: TGI LOVO-DOX
How it was run: as §1

A-549 = experiment: SRB colorimetric cell growth inhibition assay, A-549; type: cell-based; conditions: Homo sapiens, A549, A-549; for GI50: GI=growth inhibition, read-out: GI50 A-549; for CC50: cell killing (cytotoxic effect), read-out: LC50 A-549; for IC (TGI): total growth inhibition (cytostatic effect), read-out: TGI A-549
How it was run: as §1

SK-BR-3 = experiment: SRB colorimetric cell growth inhibition assay, SK-BR-3; type: cell-based; conditions: Homo sapiens; for CC50: cell killing (cytotoxic effect), read-out: LC50 SK-BR-3; for GI50: GI=growth inhibition, read-out: GI50 SK-BR-3; for IC (TGI): total growth inhibition (cytostatic effect), read-out: TGI SK-BR-3
How it was run: as §1

IGROV = experiment: SRB colorimetric cell growth inhibition assay, IGROV; type: cell-based
How it was run: as §1

K-562 = experiment: SRB colorimetric cell growth inhibition assay, K-562; type: cell-based; conditions: Homo sapiens, K562, K-562
How it was run: as §1

human topoisomerase I = target: T1, human topoisomerase I (Homo sapiens, UniProt P11387); experiment: Topoisomerase I DNA relaxation assay (supercoiled plasmid DNA); type: biochemical; conditions: supercoiled plasmid DNA, each compound tested at 1 μM, agarose gel with ethidium bromide
T1 sequence (P11387 1-765): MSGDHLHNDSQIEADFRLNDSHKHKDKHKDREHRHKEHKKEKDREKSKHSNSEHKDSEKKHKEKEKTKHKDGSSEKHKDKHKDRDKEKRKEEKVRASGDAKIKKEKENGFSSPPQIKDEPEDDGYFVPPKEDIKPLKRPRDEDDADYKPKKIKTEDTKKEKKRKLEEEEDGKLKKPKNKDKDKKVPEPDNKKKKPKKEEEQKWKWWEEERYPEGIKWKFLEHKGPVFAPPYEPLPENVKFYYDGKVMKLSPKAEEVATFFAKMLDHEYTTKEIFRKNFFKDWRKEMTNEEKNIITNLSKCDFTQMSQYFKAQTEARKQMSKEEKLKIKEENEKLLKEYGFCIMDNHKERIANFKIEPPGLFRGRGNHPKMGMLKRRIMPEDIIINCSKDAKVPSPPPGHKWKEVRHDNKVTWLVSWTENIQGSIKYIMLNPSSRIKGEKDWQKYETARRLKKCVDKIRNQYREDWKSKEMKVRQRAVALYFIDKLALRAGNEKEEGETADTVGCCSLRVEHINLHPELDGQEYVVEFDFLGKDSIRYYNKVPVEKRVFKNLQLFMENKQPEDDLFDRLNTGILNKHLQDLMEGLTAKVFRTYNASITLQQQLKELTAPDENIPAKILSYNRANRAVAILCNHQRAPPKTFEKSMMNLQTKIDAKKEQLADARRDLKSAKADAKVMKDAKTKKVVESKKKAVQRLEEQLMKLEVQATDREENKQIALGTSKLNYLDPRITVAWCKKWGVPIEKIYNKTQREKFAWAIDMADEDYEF
How it was run: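 Supercoiled plasmid DNA was relaxed by human topoisomerase I with or without test compound at 1 μM. Products were resolved by agarose gel electrophoresis with ethidium bromide staining.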

[1] = Homo sapiens, IGROV; cell killing (cytotoxic effect); read-out: LC50 IGROV

| SMILES | CC50 (HT-29; HT-29, HT-29) [nM] | CC50 (PANC-1; PANC-1, PANC-1) [nM] | IC (TGI) (PANC-1; PANC-1, PANC-1) [nM] | CC50 (DU-145; DU-145, DU-145) [nM] | GI50 (SK-MEL-28) [nM] | CC50 (SK-MEL-28) [nM] | IC (TGI) (SK-MEL-28) [nM] | CC50 (LoVo; LoVo) [nM] | GI50 (IGROV-ET) [nM] | CC50 (IGROV-ET) [nM] | IC (TGI) (IGROV-ET) [nM] | GI50 (LoVo-Dox) [nM] | CC50 (LoVo-Dox) [nM] | IC (TGI) (LoVo-Dox) [nM] | GI50 (A-549) [nM] | CC50 (A-549) [nM] | IC (TGI) (A-549) [nM] | CC50 (SK-BR-3; SK-BR-3, SK-BR-3) [nM] | CC50 (IGROV; [1]) [nM] | further results |
| --- | --- | --- | --- | --- | --- | --- | --- | --- | --- | --- | --- | --- | --- | --- | --- | --- | --- | --- | --- | --- |
| COc1cc(-c2c3n(c4c(=O)oc5cc(OC(=O)[C@H](C)NC(=O)[C@H](C)NC(=O)OC(C)(C)C)c(OC)cc5c24)CCc2cc(OC(=O)[C@H](C)NC(=O)[C@H](C)NC(=O)OC(C)(C)C)c(OC)cc2-3)ccc1OC(=O)[C@H](C)NC(=O)[C@H](C)NC(=O)OC(C)(C)C [Compound 7] | 8140 | 8040 | 3310 | 5410 | 652 | 3750 | 1640 | 8140 | 1860 | 8140 | 4580 | 3660 | 8140 | 8140 | 969 | 8140 | 2960 | 5980 | 5790 | GI50 (LNCaP; GI=growth inhibition, read-out: GI50 LN-caP): 425 nM; CC50 (LNCaP; cell killing (cytotoxic effect), read-out: LC50 LN-caP): 3610 nM; IC (TGI) (LNCaP; total growth inhibition (cytostatic effect), read-out: TGI LN-caP): 1360 nM; GI50 (HT-29; HT-29): 871 nM; IC (TGI) (HT-29; HT-29): 3310 nM; GI50 (PANC-1; PANC-1): 1360 nM; GI50 (DU-145; DU-145): 993 nM; IC (TGI) (DU-145; DU-145): 2310 nM; GI50 (LoVo; LOVO): 2000 nM; IC (TGI) (LoVo; LOVO): 5050 nM; GI50 (SK-BR-3; SK-BR-3): 1140 nM; IC (TGI) (SK-BR-3; SK-BR-3): 2610 nM; GI50 (IGROV; Homo sapiens; IGROV; GI=growth inhibition; read-out: GI50 IGROV): 1230 nM; IC (TGI) (IGROV; Homo sapiens; IGROV; total growth inhibition (cytostatic effect); read-out: TGI IGROV): 2670 nM; GI50 (K-562; GI=growth inhibition, read-out: GI50 K-562): 596 nM; CC50 (K-562; cell killing (cytotoxic effect), read-out: LC50 K-562): 8140 nM; IC (TGI) (K-562; total growth inhibition (cytostatic effect), read-out: TGI K-562): 2680 nM |
| COc1cc(-c2c3n(c4c(=O)oc5cc(OC(=O)CCc6ccccc6)c(OC)cc5c24)CCc2cc(OC(=O)CCc4ccccc4)c(OC)cc2-3)ccc1OC(=O)CCc1ccccc1 [Compound 11] | 8230 | 11100 | 1760 | 2780 | 200 | 6180 | 1180 | 10400 | 5530 | 11100 | 11100 | 11100 | 11100 | 11100 | 128 | 11100 | 1540 | 6660 | 5880 | stimulation of DNA cleavage by topoisomerase I / inhibition of topoisomerase I (nicked DNA band) in DNA relaxation assay (human topoisomerase I): inactive; GI50 (HT-29; HT-29, HT-29): 38.4 nM; IC (TGI) (HT-29; HT-29, HT-29): 175 nM; GI50 (PANC-1; PANC-1, PANC-1): 214 nM; GI50 (DU-145; DU-145, DU-145): 35.3 nM; IC (TGI) (DU-145; DU-145, DU-145): 151 nM; GI50 (LoVo; LoVo): 42.4 nM; IC (TGI) (LoVo; LoVo): 1160 nM; GI50 (SK-BR-3; SK-BR-3, SK-BR-3): 187 nM; IC (TGI) (SK-BR-3; SK-BR-3, SK-BR-3): 1200 nM; GI50 (IGROV; Homo sapiens, IGROV; GI=growth inhibition; read-out: GI50 IGROV): 267 nM; IC (TGI) (IGROV; Homo sapiens, IGROV; total growth inhibition (cytostatic effect); read-out: TGI IGROV): 1140 nM |
